# From patent publication EP3807241B1, “IMPROVEMENTS IN OR RELATING TO ORGANIC COMPOUNDS” (Givaudan SA, priority 2018, dated 2019)
# Where two headings read alike, the source gives them in different places.
# Key:
# plated rat hepatocytes = format: in vitro ADME
# Procedure: Short-term monolayer cultures of cryopreserved primary hepatocytes from rat were prepared in collagen coated 48-well plates to perform metabolic assays in a kinetic manner for up to 22 h.
# Palatable primary male rat hepatocytes (Sprague-Dawley, Grade P pooled cryopreserved hepatocytes, for plated assays) and supplements were purchased from Biopredic International (Saint Grégoire, France). WEM (with Phenol Red, with GlutaMAX™, without HEPES) was purchased from Gibco™ (ThermoFisherScientific).
# Cells were thawed following the supplier's protocol and seeded at a density of 450,000 cells/mL in 0.25 mL seeding medium (WEM supplemented with fetal bovine serum, Dexamethasone, penicillin-streptomycin, insulin, GlutaMAX™ and HEPES) using 48-well plates which were coated with collagen (Collagen I Rat Protein, Tail; Gibco™, ThermoFisherScientific) and incubated for 4-5 h to facilitate attachment. Then, the medium was changed to culturing medium (WEM supplemented with penicillin, streptomycin, insulin, hydrocortisone without serum) to prevent detachment of cells.
# Test chemicals were dissolved in methanol (80-90% methanol) and directly added with the culture medium (0.8-0.9% final methanol concentration). For structure-activity studies, final concentration of test chemicals was 50 µM or 5 µM. Cells were incubated for 0.5-22 h in the presence of test chemicals. To stop the reactions, the culture medium was removed and 0.5 M citric acid (pH 2.0; 60 µL) and cold acetonitrile (60 µL) containing 2 µM decanoyl CoA as internal standard were added to each well. The attached cells were removed and disrupted by scraping the well with a pipette tip and by pipetting up and down several times, transferred in 1.5 mL tubes and frozen at -80°C. The cell lysates were defrozen, centrifuged (21,000 x g, 5 min, RT), and the supernatant was diluted with 1.36 mL Tris-buffer (4 mM) containing KCI (6 mM), MgCl2 (0.3 mM) and n-heptadecanoyl CoA as internal standard (0.2 µM). Samples were neutralized by addition of NaOH (42 µL of 1 M NaOH) and loaded onto solid phase extraction cartridges (OASIS HLB µEIution plate, Waters). Columns were washed with 200 µL of ammonium solution (1 M), and samples eluted sequentially with 50 µL acetonitrile and 50 µL water.
# CoA conjugates were analyzed with high resolution LC-MS (LC-HRMS) on a Dionex UltiMate 3000 RS HPLC system coupled to a Q-Exactive orbitrap mass spectrometer (Thermo Scientific, Reinach, Switzerland) with electrospray ionization (ESI) in both positive and negative ionization mode. For liquid chromatography separation an Agilent Zorbax 300Extend-C18 column with dimensions 2.1 mm x 50 mm and particle size of 3.5 µm with a 2.1 mm x 10 mm pre-column of the same material was used. The flow rate was 0.4 mL/min. Eluent A consists of water containing 0.0025% ammonia (pH around 9.8) and eluent B consists of acetonitrile containing 0.0025% ammonia. A linear gradient was run from 95% eluent A (hold for 1 min) to 100% eluent B within 6 min (hold for 1 min), back to 95% eluent A within 0.5 min followed by 1.5 min equilibration time. The injection volume of the sample was 10 µl. The mass resolution of the HR-MS spectra was set to 70,000. The mass accuracy was <5ppm. […] Ion source parameters adjusted were as follows: sheath gas flow (30 arbitrary unit), auxiliary gas flow (10 arbitrary unit), capillary temperature (270°C), and source voltage (4kV in positive mode, -3kV in negative mode). Fragmentation was obtained from dissociation in an octopole collision cell using higher energy collision dissociation settings at 35 and 45 (arbitrary unit). The mass scan range was set from 120 to 1800 m/z.
# Calibration standards were prepared with CoA, acetyl-CoA, benzoyl-CoA, TBBA-CoA, and octanoyl-CoA to determine the concentrations of CoA conjugates. Decanoyl-CoA and heptadecanoyl-CoA were used as internal standards. The limit of detection with this method is 0.005 µM for CoA conjugates. […]
# primary rat hepatocytes = settings: TBBA treatment; cited from earlier work
# [1] = test system: reproductive organs of male rats; settings: rat, in vivo; cited from earlier work
# primates = settings: cited from earlier work
# [2] = test system: reproductive organs of male dogs; settings: dog, in vivo; cited from earlier work
# mice = settings: mouse, in vivo; cited from earlier work
# guinea-pigs = settings: guinea pig, in vivo; cited from earlier work
# [3] = male, Sprague-Dawley, rat, 0.5 h, 50 µM
# [4] = male, Sprague-Dawley, rat, 4 h, 50 µM
# [5] = male, Sprague-Dawley, rat, 22 h, 50 µM
compound,measurement,setting,value
CC1=C(CCC=O)CCC(C(C)C)C1 (stereo not drawn) [3-(4-isopropyl-2-methylcyclo-hex-1-en-1-yl)propanal],accumulation of CoA-conjugates (in words),plated rat hepatocytes,significantly reduced accumulation
same,CoA Conjugates Detected in Plated Rat Hepatocytes (Total Amount),plated rat hepatocytes; [3],62 % of TBBA-CoA ex BMHCA
same,CoA conjugate detected: 3-(4-isopropyl-2-methylcyclohex-1-en-1-yl)propanoic acid-CoA,plated rat hepatocytes; [3],22 % of TBBA-CoA ex BMHCA
same,"CoA conjugate detected: 3-(4-isopropyl-2-methylcyclohexa-1,5-dien-1-yl)propanoic acid-CoA",plated rat hepatocytes; [3],34 % of TBBA-CoA ex BMHCA
same,CoA conjugate detected: 3-(4-isopropyl-2-methylphenyl)propanoic acid-CoA,plated rat hepatocytes; [3],2 % of TBBA-CoA ex BMHCA
same,CoA conjugate detected: 4-isopropyl-2-methylcyclohex-1-ene-1-carboxylic acid-CoA,plated rat hepatocytes; [3],4 % of TBBA-CoA ex BMHCA
same,CoA Conjugates Detected in Plated Rat Hepatocytes (Total Amount),plated rat hepatocytes; [4],28 % of TBBA-CoA ex BMHCA
same,CoA conjugate detected: 3-(4-isopropyl-2-methylcyclohex-1-en-1-yl)propanoic acid-CoA,plated rat hepatocytes; [4],10 % of TBBA-CoA ex BMHCA
same,"CoA conjugate detected: 3-(4-isopropyl-2-methylcyclohexa-1,5-dien-1-yl)propanoic acid-CoA",plated rat hepatocytes; [4],13 % of TBBA-CoA ex BMHCA
same,CoA conjugate detected: 3-(4-isopropyl-2-methylphenyl)propanoic acid-CoA,plated rat hepatocytes; [4],2 % of TBBA-CoA ex BMHCA
same,CoA conjugate detected: 4-isopropyl-2-methylcyclohex-1-ene-1-carboxylic acid-CoA,plated rat hepatocytes; [4],3 % of TBBA-CoA ex BMHCA
same,CoA Conjugates Detected in Plated Rat Hepatocytes (Total Amount),plated rat hepatocytes; [5],9 % of TBBA-CoA ex BMHCA
same,CoA conjugate detected: 3-(4-isopropyl-2-methylcyclohex-1-en-1-yl)propanoic acid-CoA,plated rat hepatocytes; [5],3 % of TBBA-CoA ex BMHCA
same,"CoA conjugate detected: 3-(4-isopropyl-2-methylcyclohexa-1,5-dien-1-yl)propanoic acid-CoA",plated rat hepatocytes; [5],3 % of TBBA-CoA ex BMHCA
same,CoA conjugate detected: 4-isopropyl-2-methylcyclohex-1-ene-1-carboxylic acid-CoA,plated rat hepatocytes; [5],3 % of TBBA-CoA ex BMHCA
same,GC Odor Threshold,GC odor threshold,0.022 ng/L
CC(C)CC1=CCC(CCC=O)C(C)C1 (stereo not drawn) [3-(4-isobutyl-6-methylcyclohex-3-en-1-yl)propanal],CoA Conjugates Detected in Plated Rat Hepatocytes (Total Amount),plated rat hepatocytes; [3],86 % of TBBA-CoA ex BMHCA
same,CoA conjugate detected: 3-(4-isobutyl-2-methylcyclohexyl)propanoic acid-CoA,plated rat hepatocytes; [3],3 % of TBBA-CoA ex BMHCA
same,CoA conjugate detected: 3-(4-isobutyl-6-methylcyclohex-3-en-1-yl)propanoic acid,plated rat hepatocytes; [3],58 % of TBBA-CoA ex BMHCA
same,"CoA conjugate detected: 3-(4-isobutyl-6-methylcyclohexa-1,3-dien-1-yl)propanoic acid-CoA",plated rat hepatocytes; [3],21 % of TBBA-CoA ex BMHCA
same,CoA conjugate detected: 4-isobutyl-6-methylcyclohex-3-ene-1-carboxylic acid-CoA,plated rat hepatocytes; [3],4 % of TBBA-CoA ex BMHCA
same,CoA Conjugates Detected in Plated Rat Hepatocytes (Total Amount),plated rat hepatocytes; [4],31 % of TBBA-CoA ex BMHCA
same,CoA conjugate detected: 3-(4-isobutyl-6-methylcyclohex-3-en-1-yl)propanoic acid,plated rat hepatocytes; [4],19 % of TBBA-CoA ex BMHCA
same,"CoA conjugate detected: 3-(4-isobutyl-6-methylcyclohexa-1,3-dien-1-yl)propanoic acid-CoA",plated rat hepatocytes; [4],8 % of TBBA-CoA ex BMHCA
same,CoA conjugate detected: 4-isobutyl-6-methylcyclohex-3-ene-1-carboxylic acid-CoA,plated rat hepatocytes; [4],4 % of TBBA-CoA ex BMHCA
CC(C)C1CC=C(CCC=O)CC1 (stereo not drawn) [3-(4-isopropylcyclohex-1-en-1-yl)propanal],accumulation of CoA-conjugates (in words),plated rat hepatocytes,substantial accumulation
same,CoA Conjugates Detected in Plated Rat Hepatocytes (Total Amount),plated rat hepatocytes; [3],124 % of TBBA-CoA ex BMHCA
same,CoA conjugate detected: 3-(4-isopropylcyclohex-1-en-1-yl)propanoic acid-CoA,plated rat hepatocytes; [3],53 % of TBBA-CoA ex BMHCA
same,"CoA conjugate detected: 3-(4-isopropylcyclohexa-1 ,5-dien-1-yl)propanoic acid-CoA",plated rat hepatocytes; [3],36 % of TBBA-CoA ex BMHCA
same,CoA conjugate detected: 4-isopropylcyclohex-1-ene-1-carboxylic acid-CoA,plated rat hepatocytes; [3],23 % of TBBA-CoA ex BMHCA
same,CoA conjugate detected: 4-isopropylcyclohexane-1-carboxylic acid-CoA,plated rat hepatocytes; [3],12 % of TBBA-CoA ex BMHCA
same,CoA Conjugates Detected in Plated Rat Hepatocytes (Total Amount),plated rat hepatocytes; [4],79 % of TBBA-CoA ex BMHCA
same,CoA conjugate detected: 3-(4-isopropylcyclohex-1-en-1-yl)propanoic acid-CoA,plated rat hepatocytes; [4],26 % of TBBA-CoA ex BMHCA
same,"CoA conjugate detected: 3-(4-isopropylcyclohexa-1 ,5-dien-1-yl)propanoic acid-CoA",plated rat hepatocytes; [4],17 % of TBBA-CoA ex BMHCA
same,CoA conjugate detected: 4-isopropylcyclohex-1-ene-1-carboxylic acid-CoA,plated rat hepatocytes; [4],26 % of TBBA-CoA ex BMHCA
same,CoA conjugate detected: 4-isopropylcyclohexane-1-carboxylic acid-CoA,plated rat hepatocytes; [4],10 % of TBBA-CoA ex BMHCA
same,CoA Conjugates Detected in Plated Rat Hepatocytes (Total Amount),plated rat hepatocytes; [5],31 % of TBBA-CoA ex BMHCA
same,CoA conjugate detected: 4-isopropylcyclohex-1-ene-1-carboxylic acid-CoA,plated rat hepatocytes; [5],24 % of TBBA-CoA ex BMHCA
same,CoA conjugate detected: 4-isopropylcyclohexane-1-carboxylic acid-CoA,plated rat hepatocytes; [5],7 % of TBBA-CoA ex BMHCA
CC(C)CC1=CCC(CCC=O)CC1 (stereo not drawn) [3-(4-isobutylcyclohex-3-en-1-yl)propanal],main conjugate detected,"plated rat hepatocytes; male, Sprague-Dawley, rat, 50 µM",4-isobutylbenzoic acid-CoA
same,CoA Conjugates Detected in Plated Rat Hepatocytes (Total Amount),plated rat hepatocytes; [3],74 % of TBBA-CoA ex BMHCA
same,CoA conjugate detected: 3-(4-isobutylcyclohex-3-en-1-yl)propanoic acid-CoA,plated rat hepatocytes; [3],19 % of TBBA-CoA ex BMHCA
same,"CoA conjugate detected: 3-(4-isobutylcyclohexa-1,3-dien-1-yl)propanoic acid-CoA",plated rat hepatocytes; [3],12 % of TBBA-CoA ex BMHCA
same,CoA conjugate detected: 4-isobutylcyclohex-3-ene-1-carboxylic acid-CoA,plated rat hepatocytes; [3],23 % of TBBA-CoA ex BMHCA
same,"CoA conjugate detected: 4-isobutylcyclohexa-1,3-diene-1-carboxylic acid-CoA",plated rat hepatocytes; [3],8 % of TBBA-CoA ex BMHCA
same,CoA Conjugates Detected in Plated Rat Hepatocytes (Total Amount),plated rat hepatocytes; [4],45 % of TBBA-CoA ex BMHCA
same,CoA conjugate detected: 3-(4-isobutylcyclohex-3-en-1-yl)propanoic acid-CoA,plated rat hepatocytes; [4],2 % of TBBA-CoA ex BMHCA
same,"CoA conjugate detected: 3-(4-isobutylcyclohexa-1,3-dien-1-yl)propanoic acid-CoA",plated rat hepatocytes; [4],2 % of TBBA-CoA ex BMHCA
same,CoA conjugate detected: 4-isobutylcyclohex-3-ene-1-carboxylic acid-CoA,plated rat hepatocytes; [4],10 % of TBBA-CoA ex BMHCA
same,"CoA conjugate detected: 4-isobutylcyclohexa-1,3-diene-1-carboxylic acid-CoA",plated rat hepatocytes; [4],8 % of TBBA-CoA ex BMHCA
same,CoA Conjugates Detected in Plated Rat Hepatocytes (Total Amount),plated rat hepatocytes; [5],29 % of TBBA-CoA ex BMHCA
same,CoA conjugate detected: 3-(4-isobutylcyclohex-3-en-1-yl)propanoic acid-CoA,plated rat hepatocytes; [5],3 % of TBBA-CoA ex BMHCA
same,CoA conjugate detected: 4-isobutylcyclohex-3-ene-1-carboxylic acid-CoA,plated rat hepatocytes; [5],5 % of TBBA-CoA ex BMHCA
"CC(C)(C)c1ccc(C(=O)O)cc1 [TBBA, 4-(tert-butyl)benzoic acid]","CoA, acetyl-CoA and citrate levels",primary rat hepatocytes,decreased
same,p-tert-butyl-benzoyl-CoA accumulates to stable levels within,"plated rat hepatocytes; male, Sprague-Dawley, rat",0.5 to 4 h
"CC(C=O)Cc1ccc(C(C)(C)C)cc1 (stereo not drawn) [BMHCA, 3-(4-tert-butylphenyl)-2-methylpropanal]",toxic effects on the reproductive organs,[1],toxic effects
same,toxic effects,primates,No effects
same,toxic effects on the reproductive organs,[2],toxic effects
same,CoA Conjugates Detected in Plated Rat Hepatocytes (Total Amount),plated rat hepatocytes; [3],100 % of TBBA-CoA ex BMHCA
same,CoA Conjugates Detected in Plated Rat Hepatocytes (Total Amount),plated rat hepatocytes; [4],100 % of TBBA-CoA ex BMHCA
same,CoA Conjugates Detected in Plated Rat Hepatocytes (Total Amount),plated rat hepatocytes; [5],100 % of TBBA-CoA ex BMHCA
same,toxic effects,mice,No effects
same,toxic effects,guinea-pigs,No effects
